Data published in PMC8992272, “Stabilities of Three Key Biological Trisulfides with Implications for Their Roles in the Release of Hydrogen Sulfide and Bioaccumulation of Sulfane Sulfur” (ACS Omega, 2022).
Where two headings read alike, the source gives them in different places. Blank lines part the entries; values can stand above or below the molecule they belong to.

What was measured:
[1] = cited from earlier work
[2] = no reference given, cited from earlier work
[3] = Equilibrium between di-, tri- and tetrasulfides in the presence of elemental sulfur (1H NMR); assay type: physicochemical; settings: D2O with elemental sulfur and butylamine, after 4 days
Procedure: To test this hypothesis, a reaction was completed in D2O with elemental sulfur, NAC disulfide, and butylamine.
To understand why the degradation leveled off, NAC trisulfide was dissolved in water, elemental sulfur was added, and the contents were heated to 40 °C.
N-Acetylcysteine disulfide (9.3 mg, 23 μmol) was dissolved in 600 μL of D2O. Elemental sulfur (6.8 mg, 0.21 mmol) and butylamine (18.5 mg, 0.25 mmol) were added, and the ^1H NMR spectra were periodically obtained to track the equilibrium.

[4] = Stability in nonbuffered D2O at room and elevated temperature (1H NMR); assay type: physicochemical; settings: nonbuffered D2O
Procedure: N-Acetylcysteine trisulfide (24.3 mg, 61 μmol) was dissolved in 500 μL of D2O and placed in a 40 °C oil bath. The ^1H NMR spectra were taken periodically to track degradation.
N-Acetylcysteine trisulfide (24.3 mg, 61 μmol) was dissolved in 500 μL of D2O and placed in a 60 °C oil bath. The ^1H NMR spectra were taken periodically to track degradation.
N-Acetylcysteine tetrasulfide (8.0 mg, 21 μmol) was dissolved in 600 μL of D2O. The ^1H NMR spectra were taken periodically to track degradation.
N-Acetylcysteine tetrasulfide (10.0 mg, 26 μmol) was dissolved in 600 μL of D2O and placed in a 40 °C oil bath. The ^1H NMR spectra were taken periodically to track degradation.

[5] = Stability in D2O in the presence of butylamine or triethylamine, tracked by 1H NMR; assay type: physicochemical; settings: for tetrasulfide present: butylamine and triethylamine; for degraded: after 1 day
Procedure: N-Acetylcysteine trisulfide (26.5 mg, 66 μmol) was dissolved in 600 μL of D2O. Butylamine (5.0 mg, 68 μmol) was added, and the ^1H NMR spectra were taken periodically to track degradation.
N-Acetylcysteine trisulfide (26.5 mg, 66 μmol) was dissolved in 600 μL of D2O. Triethylamine (8.0 mg, 79 μmol) was added, and the ^1H NMR spectra were taken periodically to track degradation.
Cysteine trisulfide (5.5 mg, 20 μmol) was added to 600 μL of D2O. The solution was filtered to remove undissolved particles. […] The ^1H NMR spectra were taken periodically to track degradation.
Cysteine trisulfide (4.3 mg, 16 μmol) was added to 600 μL of D2O. The solution was filtered to remove undissolved particles. […] The ^1H NMR spectra were taken periodically to track degradation.
N-Acetylcysteine tetrasulfide (17.2 mg, 44 μmol) was dissolved in 600 μL of D2O. Butylamine (9.9 mg, 135 μmol) was added, and the ^1H NMR spectra were taken periodically to track degradation.
N-Acetylcysteine tetrasulfide (17.2 mg, 44 μmol) was dissolved in 600 μL of D2O. Triethylamine (13.5 mg, 135 μmol) was added, and the ^1H NMR spectra were taken periodically to track degradation.

[6] = Stability in water/D2O buffered at different pH values, tracked by 1H NMR; assay type: physicochemical; settings: for half-life: buffered water/D2O, read-out: estimated half-life (converted); for degradation: pH 5.8, 9 days
Text: The ^1H NMR spectra of NAC and the disulfide, trisulfide, and tetrasulfide of NAC had peaks at unique values for chemical shifts and allowed for their easy characterization (Figure 3). Pure chemicals of each sulfide were synthesized and characterized by ^1H and ^13C NMR spectroscopy as well as by high-resolution mass spectroscopy. The unique chemical shifts of the peaks for the Ha and Hb/Hc protons on the sulfides allowed the integration of each sulfide to be determined.
The stability of NAC trisulfide in water buffered at pH values of 5.8, 7.4, and 9.0 was measured.
The stability of cysteine trisulfide was investigated in buffered water at pH values of 5.8, 7.0, and 9.0. […] At pH values of 5.8, 7.0, and 9.0, the cysteine trisulfide was soluble and its ^1H NMR spectra were obtained.
The stability of glutathione trisulfide was investigated at pH values of 5.8, 7.4, and 9.0 (Figure S14a). The degradation of glutathione trisulfide was more rapid at pH values of 5.8 and 7.4 than that of the trisulfides of NAC and cysteine. At an acidic pH of 5.8, 71% of glutathione trisulfide degraded after 10 days. At pH values of 7.4 and 9.0, glutathione trisulfide degraded 79 and 81%, respectively, at day 9. […] The degradation of glutathione trisulfide reached an equilibrium of approximately 20% with the disulfide due to the reaction catalyzed by amine with elemental sulfur. Rate constants and half-lives were obtained for the degradation of glutathione trisulfide at each pH value using early data points unaffected by the equilibrium. At pH values of 5.8, 7.4, and 9.0, the estimated half-lives were 6.3 days (151 h), 0.90 days (21.6 h), and 0.79 days (19.0 h), respectively (Figure S14b).
The stability of NAC tetrasulfide was investigated in D2O buffered at pH values of 5.8, 7.4, and 9.0 (Figure S16a). At a pH of 5.8, NAC tetrasulfide degraded by 13% after 9 days. At pH values of 7.4 and 9.0, the tetrasulfide degraded by 55 and 52%, respectively, after 9 days. At each pH, the degradation product was NAC trisulfide, elemental sulfur, and a small amount of NAC disulfide (<3%). […] Estimated rate constants and half-lives for the degradation of NAC tetrasulfide at each pH were obtained. At pH values of 5.8, 7.4, and 9.0, the estimated half-lives were 53.3, 7.5, and 8.2 days, respectively (Figure S16b).

[7] = Solubility observations; assay type: physicochemical
[8] = Stability in the presence of acetonitrile, benzamide, zinc sulfate or iron sulfate, or in methanol-d4 (1H NMR); assay type: physicochemical; settings: 3:1 mole ratio acetonitrile or benzamide, D2O, after 12 days
Procedure: N-Acetylcysteine trisulfide (26.5 mg, 66 μmol) was dissolved in 600 μL of D2O. Acetonitrile (3.0 mg, 73 μmol) was added, and the ^1H NMR spectra were taken periodically to track degradation.
N-Acetylcysteine trisulfide (31.4 mg, 78 μmol) was dissolved in 600 μL of D2O. Benzamide (9.4 mg, 78 μmol) was added, and the ^1H NMR spectra were taken periodically to track degradation.
N-Acetylcysteine trisulfide (15.0 mg, 38 μmol) was dissolved in 600 μL of D2O. ZnSO4 (11.8 mg, 73 μmol) was added, and the ^1H NMR spectra were taken periodically to track degradation.
N-Acetylcysteine trisulfide (15.0 mg, 38 μmol) was dissolved in 600 μL of D2O. FeSO4·7H2O (11.6 mg, 41 μmol) was added, and the ^1H NMR spectra were taken periodically to track degradation.
N-Acetylcysteine trisulfide (32.1 mg, 80 μmol) was dissolved in 600 μL of CD3OD. The ^1H NMR spectra were taken periodically to track degradation.
Cysteine trisulfide (5.1 mg, 19 μmol) was added to 600 μL of D2O. Solution was filtered to remove undissolved particles. […] The ^1H NMR spectra were taken periodically to track degradation.
Cysteine trisulfide (6.8 mg, 25 μmol) was added to 600 μL of D2O. Solution was filtered to remove undissolved particles. […] The ^1H NMR spectra were taken periodically to track degradation.

Compound: C=CCSSSCC=C [DATS, diallyl trisulfide]
- degradation ([1]; in the presence of glutathione (GSH)): degraded rapidly
- stability ([1]; micellar solution (propylene glycol, ethanol, Tween 80, water), pH 2.6 to 7.0, 15 min, HPLC): stable
- stability ([1]; neat, 4 °C, after 3 months, HPLC): stable
- degraded ([1]; neat, 35 °C, after 3 months, HPLC): 30%
- degraded ([1]; neat, room temperature, after 3 months, HPLC): 11%
- stability ([1]; same micellar solution, in the presence of antioxidants): not stable

Compound: CSSSC [DMTS, dimethyl trisulfide]
- degradation ([1]; neat, 4 and 22 °C, over 1 year): no degradation
- degraded ([1]; neat, 34 °C, over 1 year): 70%

Compound: S [H2S, hydrogen sulfide]
- pKa [2]: 7.0

- converted to trisulfide [3]: 15%
Compound: CC(=O)N[C@@H](CSSC[C@H](NC(C)=O)C(=O)O)C(=O)O [NAC disulfide, N-Acetylcysteine disulfide, reference compound]

- estimated rate constant ([4]; 40 °C): 8.7 × 10^–2 days^–1
- degraded ([4]; 40 °C, after 20 days): 83%
- degradation ([4]; 40 °C, after 63 days): 83%
- half-life at 43 mM ([4]; 40 °C, read-out: estimated half-life (converted)): 192 h
- estimated rate constant ([4]; room temperature): 3.9 × 10^–2 days^–1
- degraded ([4]; room temperature, after 35 days): 69%
- half-life at 35 mM ([4]; room temperature, read-out: estimated half-life (converted)): 427 h
- half-life at 73 mM ([5]; D2O with butylamine or triethylamine, in the presence of butylamine and triethylamine (both amines), read-out: upper limit of the half-life): ≤ 1.6 min
- half-life ([5]; D2O with butylamine, in the presence of butylamine (abstract), read-out: half-life): ≤ 0.025 h
- tetrasulfide present ([5]; after 5 min): less than 10%
- tetrasulfide present ([5]; after a day): 4%
- half-life ([6]; pH 5.8, pH 5.8): 1280 h
- half-life ([6]; pH 7.4, pH 7.4): 180 h
- half-life ([6]; pH 9, pH 9.0): 197 h
- degradation [6]: 13%
- degraded ([6]; pH 7.4, day 9): 55%
- degraded ([6]; pH 9.0, day 9): 52%
Compound: CC(=O)NC(CSSSSCC(NC(C)=O)C(=O)O)C(=O)O (centres unmarked) [NAC tetrasulfide, N-Acetylcysteine Tetrasulfide]
- stability ([1]; in the presence of thiols, released H2S): unstable

- half-life ([5]; D2O with butylamine, in the presence of butylamine, D2O, early data points, read-out: estimated half-life of degradation (converted)): 2.3 h
- half-life ([5]; D2O with triethylamine, in the presence of triethylamine, D2O, early data points, read-out: estimated half-life of degradation (converted)): 2.9 h
- trisulfide remaining (degradation leveled off) ([5]; after 10 days in the presence of butylamine and triethylamine, D2O): approximately 20%
- degraded ([5]; in the presence of butylamine, D2O): 63%
- degraded ([5]; in the presence of triethylamine, D2O): 78%
- solubility ([7]; buffered water pH 5.8, 7.0 and 9.0): soluble
- solubility ([7]; buffered water pH 7.4): poorly soluble
- degradation [8]: no observable degradation
- stability ([6]; basic conditions (abstract)): unstable
- half-life ([6]; pH 7, pH 7.0): 406 h
- half-life ([6]; pH 9, pH 9.0): 274 h
- degradation [6]: < 3%
- degraded ([6]; pH 7.0, after 13 days): 40%
- degraded ([6]; pH 9.0, after 13 days): 56%
Compound: N[C@@H](CSSSC[C@H](N)C(=O)O)C(=O)O [cysteine trisulfide, Cysteine Trisulfide]

Compound: N[C@@H](CS)C(=O)O [cysteine]
- pKa ([2]; ammonium group): 10.8

Compound: N[C@@H](CCC(=O)N[C@@H](CS)C(=O)NCC(=O)O)C(=O)O [glutathione]
- pKa ([2]; ammonium group): 9.6
